From article PMC3574224, “Na^+ Regulation in the Malaria Parasite Plasmodiumfalciparum Involves the Cation ATPase PfATP4 and Is a Target of the Spiroindolone Antimalarials” (Cell Host & Microbe, 2013) come the findings set out here.

For assay [1], the target named is T1, membrane-associated ATPase activity, Dd2^attB CAM I398F/P990R (mutant PfATP4 transfectant) (Plasmodium falciparum, UniProt A0A143ZZK9, I398F/P990R).
T1 sequence (A0A143ZZK9 1-1264 I398F/P990R): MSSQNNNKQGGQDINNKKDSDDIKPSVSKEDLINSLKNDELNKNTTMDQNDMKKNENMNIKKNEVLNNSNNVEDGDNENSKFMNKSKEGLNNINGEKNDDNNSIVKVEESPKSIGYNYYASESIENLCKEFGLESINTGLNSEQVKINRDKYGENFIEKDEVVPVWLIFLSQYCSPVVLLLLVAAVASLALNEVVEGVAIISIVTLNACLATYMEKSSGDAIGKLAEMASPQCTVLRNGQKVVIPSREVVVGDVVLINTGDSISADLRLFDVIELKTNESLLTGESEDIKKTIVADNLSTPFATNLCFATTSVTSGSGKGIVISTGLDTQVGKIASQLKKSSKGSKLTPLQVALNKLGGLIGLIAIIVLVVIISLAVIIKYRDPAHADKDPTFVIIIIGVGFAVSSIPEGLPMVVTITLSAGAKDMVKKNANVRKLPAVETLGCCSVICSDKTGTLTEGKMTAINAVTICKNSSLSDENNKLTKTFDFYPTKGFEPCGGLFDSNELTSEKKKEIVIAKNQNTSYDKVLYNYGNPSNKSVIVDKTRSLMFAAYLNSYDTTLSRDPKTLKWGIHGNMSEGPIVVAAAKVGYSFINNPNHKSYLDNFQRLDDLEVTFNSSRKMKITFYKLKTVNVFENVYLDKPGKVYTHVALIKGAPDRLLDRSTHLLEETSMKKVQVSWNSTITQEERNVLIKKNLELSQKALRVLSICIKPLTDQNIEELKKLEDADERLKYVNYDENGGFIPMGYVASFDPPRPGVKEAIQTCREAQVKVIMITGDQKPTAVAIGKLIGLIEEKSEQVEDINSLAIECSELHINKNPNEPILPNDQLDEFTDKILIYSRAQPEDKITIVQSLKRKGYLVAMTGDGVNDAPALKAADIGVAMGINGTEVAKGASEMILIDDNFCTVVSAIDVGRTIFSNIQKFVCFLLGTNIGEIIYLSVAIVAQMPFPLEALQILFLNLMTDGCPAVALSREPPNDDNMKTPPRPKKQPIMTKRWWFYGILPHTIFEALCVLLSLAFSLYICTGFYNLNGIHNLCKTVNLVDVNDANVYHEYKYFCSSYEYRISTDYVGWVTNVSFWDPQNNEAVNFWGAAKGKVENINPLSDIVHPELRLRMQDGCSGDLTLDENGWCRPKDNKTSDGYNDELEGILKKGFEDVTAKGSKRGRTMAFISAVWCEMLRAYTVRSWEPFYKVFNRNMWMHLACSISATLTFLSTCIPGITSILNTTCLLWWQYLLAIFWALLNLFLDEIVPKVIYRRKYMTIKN
As to the kind of experiment: Membrane-associated ATPase activity, Dd2^attB CAM I398F/P990R. The class given is biochemical. The following applies: concentration causing Pi production rate to decrease by half the maximal amount, read-out: IC50 for disruption of ATPase activity by NITD246. On the procedure:
For the preparation of uninfected erythrocyte membranes, packed uninfected erythrocytes were lysed by incubation for 5 min in ice-cold PBS containing 0.1% (w/v) saponin together with 1/500 Protease Inhibitor Cocktail Set III (Calbiochem). The erythrocyte ghosts were pelleted by centrifugation (12,000 × g, 10 min) and washed three times in ice-cold water (12,000 × g, 10 min) immediately prior to their use in the ATPase assay. To prepare membranes from parasitised erythrocytes, saponin-isolated parasites were lysed by suspension in ice-cold water (containing 1/500 Protease Inhibitor Cocktail Set III) then washed three times in ice-cold water (12,000 × g, 10 min) before their immediate use in the ATPase assay. The ATPase activity of membrane preparations from uninfected erythrocytes and saponin-isolated parasites was estimated from the rate of hydrolysis of ATP and measured using the PiColorLock Gold Phosphate (Pi) Detection System (Innova Biosciences). Briefly, membrane preparations from 1–3 × 10^8 cells were suspended in reaction buffer (100 mM of either NaCl or choline chloride, 50 mM Tris-HCl, 20 mM KCl, and 2 mM MgCl2) at 37°C. The ATPase reaction was initiated by the addition of 0.25 mM Na2ATP. Note that it was necessary to use the Na^+ salt of ATP, rather than the K^+ and Mg^2+ salts, as the latter both contain residual Pi that saturated the Pi detection system. […]

Assay [2] relates to P. falciparum parasites. As to the kind of experiment: Parasite proliferation, [^3H]hypoxanthine incorporation assay, 48 hr. Format: cell-based. The following applies: Plasmodium falciparum; mean ± SEM, number of independent experiments in parentheses; read-out: IC50 for inhibition of parasite proliferation. The protocol:
Parasite growth assays were performed in 96-well plates over 48 hr (commencing at the ring stage) using a standard [^3H]hypoxanthine incorporation assay ([Desjardins et al., 1979]).
Dose-response curves were obtained using the expression y = y^min + y^max/(1 + [C/IC50]^b), where y is the parameter being measured (parasite proliferation, Na^+ influx, or ATPase activity), y^min is the minimum value of y, y^max is the maximum value of y, C is the concentration of the moiety that was varied in the experiment, IC50 is the concentration at which y was reduced to 50% of y^max, and b is a fitted constant.

As for `C[C@H]1Cc2c([nH]c3cc(F)c(F)cc23)[C@@]2(N1)C(=O)Nc1ccc(Cl)cc12` [NITD246], the values for the IC50 in assay [1] and in assay [2] were 170 ± 120 pM and 120 ± 20 pM, respectively.
